# Results as given in US20250108038A1 (priority 2023, published 2025).
# Values joined by “and” are separate entries in the source; they are usually repeats but may differ in a detail not shown here. Equal entries are not always repeated.
# Test system: Long Evans rats
# Assay: Behavioral satiety sequence (BSS)
# Format: in vivo, Long Evans rat
# Settings: Compound I-19 0.3 mg/kg
# Excerpt: The Behavioural Satiety Sequence (BSS) is a technique used to evaluate physiological satiety. It is based on the expression of a sequence of behaviors including eating, grooming, locomotor activity, followed by resting, which are typically observed in rodents post-ingestion (Halford et al, 1998, Pharmacology Biochemistry and Behaviour. 61(2): 159-168). The BSS is a widely used model for determining the effects of novel pharmaceuticals on food intake and measures of satiety in rodents (Oliveira et al, 2011, Revista de Nutrição. 24(4) 619-628), and to discriminate the cause of reduced food intake following pharmacological manipulation. For example, treatments that may reduce food intake by non-specific mechanisms, such as immobility, malaise, and taste adulteration, will disrupt this sequence (Halford et al, 1998, Pharmacology Biochemistry and Behaviour. 61(2): 159-168).
# Specifically, 12 male Long-Evans rats were food-deprived for 22 h with a 2 h feeding period each day. Rats were trained to consume daily food during the 2 h period over 25 days. The testing phase was initiated once the rats consistently consumed 16-18 g of food per day with ≤10% variance in amount of feed consumed. Feeding took place in designated individual boxes in a quiet room separate from the housing room. Continuous remote monitoring via video camera during feeding was used to assess the BSS. Food consumption was measured by weighing the total available food before and after the 2 h feeding window, correcting for spillage. Lorcaserin (1 mg/kg) was included as a reference control (Higgins et al, 2011, Neuropsychopharmacology. 37(5): 1177-1191). Subjects were tested using a repeated-measures, Latin square design with 2-3 days wash-out between treatment cycles.
# On scheduled test days, animals were monitored remotely via video camera during the feeding access period. The occurrence of four mutually exclusive behaviors (eating/drinking, grooming, active, rest) were individually scored. Over the 2 h feeding period, behaviors were assessed every 30 seconds. Scores were compiled into 23 5 min timebins (timebin 24 was removed due to early removal of animals) and the frequency of each behavior within each timebin was calculated to determine a temporal frequency of each measure (Rodgers et al, 2010, Pharmacology Biochemistry and Behaviour. 97: 3-14). Percentage time was plotted for each behavioral sequence in each timebin to compare between treatment groups (Higgins et al, 2011, Neuropsychopharmacology. 37(5): 1177-1191).
# [1] = AVG of animals LT-1 to LT-12, 0-0.5 hours
# [2] = raw data per animal LT-1 to LT-12, 0-0.5 hours
# [3] = raw score per animal (LT-1 to LT-12)
compound,measurement,setting,value
Clc1ccc(C2(OCC3OCCO3)c3ccccc3C3=NCCN32)cc1 (stereo not drawn) [Compound I-19],"BSS scoring G (grooming), Time Bin 19 (90-95 TOTAL), AVG",AVG of animals LT-1 to LT-12,0.05
same,"BSS scoring G (grooming), Time Bin 20 (95-100 TOTAL), AVG",AVG of animals LT-1 to LT-12,0.05
same,"BSS scoring G (grooming), Time Bin 21 (100-105 TOTAL), AVG",AVG of animals LT-1 to LT-12,0.02
same,"BSS scoring G (grooming), Time Bin 22 (105-110 TOTAL), AVG",AVG of animals LT-1 to LT-12,0.01
same,"BSS scoring G (grooming), Time Bin 23 (110-115 TOTAL), AVG",AVG of animals LT-1 to LT-12,0.05
same,"BSS scoring G (grooming), Time Bin 24 (115-120 TOTAL), AVG",AVG of animals LT-1 to LT-12,0.04
same,"BSS scoring R (resting), Time Bin 19 (90-95 TOTAL), AVG",AVG of animals LT-1 to LT-12,0.11
same,"BSS scoring R (resting), Time Bin 20 (95-100 TOTAL), AVG",AVG of animals LT-1 to LT-12,0.09
same,"BSS scoring R (resting), Time Bin 21 (100-105 TOTAL), AVG",AVG of animals LT-1 to LT-12,0.19
same,"BSS scoring R (resting), Time Bin 22 (105-110 TOTAL), AVG",AVG of animals LT-1 to LT-12,0.21
same,"BSS scoring R (resting), Time Bin 23 (110-115 TOTAL), AVG",AVG of animals LT-1 to LT-12,0.16
same,"BSS scoring R (resting), Time Bin 24 (115-120 TOTAL), AVG",AVG of animals LT-1 to LT-12,0.21
same,"BSS scoring A (active), Time Bin 1 (0-5 TOTAL), AVG",[1],0.09
same,"BSS scoring A (active), Time Bin 2 (5-10 TOTAL), AVG",[1],0.02
same,"BSS scoring A (active), Time Bin 3 (10-15 TOTAL), AVG",[1],0.03
same,"BSS scoring A (active), Time Bin 4 (15-20 TOTAL), AVG",[1],0.08
same,"BSS scoring A (active), Time Bin 5 (20-25 TOTAL), AVG",[1],0.07
same,"BSS scoring A (active), Time Bin 6 (25-30 TOTAL), AVG",[1],0.08
same,"BSS scoring E (eating/drinking), Time Bin 1 (0-5 TOTAL), AVG",[1],0.88
same,"BSS scoring E (eating/drinking), Time Bin 2 (5-10 TOTAL), AVG",[1],0.95
same,"BSS scoring E (eating/drinking), Time Bin 3 (10-15 TOTAL), AVG",[1],0.94
same,"BSS scoring E (eating/drinking), Time Bin 4 (15-20 TOTAL), AVG",[1],0.90
same,"BSS scoring E (eating/drinking), Time Bin 5 (20-25 TOTAL), AVG",[1],0.88
same,"BSS scoring E (eating/drinking), Time Bin 6 (25-30 TOTAL), AVG",[1],0.88
same,"BSS scoring G (grooming), Time Bin 1 (0-5 TOTAL), AVG",[1],0.03
same,"BSS scoring G (grooming), Time Bin 2 (5-10 TOTAL), AVG",[1],0.03
same,"BSS scoring G (grooming), Time Bin 3 (10-15 TOTAL), AVG",[1],0.03
same,"BSS scoring G (grooming), Time Bin 4 (15-20 TOTAL), AVG",[1],0.01
same,"BSS scoring G (grooming), Time Bin 5 (20-25 TOTAL), AVG",[1],0.03
same,"BSS scoring G (grooming), Time Bin 6 (25-30 TOTAL), AVG",[1],0.02
same,"BSS scoring R (resting), Time Bin 1 (0-5 TOTAL), AVG",[1],0.01
same,"BSS scoring R (resting), Time Bin 2 (5-10 TOTAL), AVG",[1],0.00
same,"BSS scoring R (resting), Time Bin 3 (10-15 TOTAL), AVG",[1],0.00
same,"BSS scoring R (resting), Time Bin 4 (15-20 TOTAL), AVG",[1],0.02
same,"BSS scoring R (resting), Time Bin 5 (20-25 TOTAL), AVG",[1],0.03
same,"BSS scoring R (resting), Time Bin 6 (25-30 TOTAL), AVG",[1],0.03
same,"BSS scoring A (active), Time Bin 1 (0-5 TOTAL)",[2],1 (5×) and 0 (4×) and 2 (3×)
same,"BSS scoring A (active), Time Bin 2 (5-10 TOTAL)",[2],0 (10×) and 1 (2×)
same,"BSS scoring A (active), Time Bin 3 (10-15 TOTAL)",[2],0 (9×) and 2 and 1 (2×)
same,"BSS scoring A (active), Time Bin 4 (15-20 TOTAL)",[2],0 (7×) and 1 (3×) and 2 and 4
same,"BSS scoring A (active), Time Bin 5 (20-25 TOTAL)",[2],3 and 0 (7×) and 1 (3×) and 2
same,"BSS scoring A (active), Time Bin 6 (25-30 TOTAL)",[2],1 (3×) and 0 (6×) and 2 (3×)
same,"BSS scoring E (eating/drinking), Time Bin 1 (0-5 TOTAL)",[2],9 (6×) and 7 and 8 (3×) and 10 (2×)
same,"BSS scoring E (eating/drinking), Time Bin 2 (5-10 TOTAL)",[2],9 (6×) and 10 (6×)
same,"BSS scoring E (eating/drinking), Time Bin 3 (10-15 TOTAL)",[2],10 (6×) and 9 (5×) and 8
same,"BSS scoring E (eating/drinking), Time Bin 4 (15-20 TOTAL)",[2],10 (4×) and 9 (6×) and 8 and 6
same,"BSS scoring E (eating/drinking), Time Bin 5 (20-25 TOTAL)",[2],6 and 9 (6×) and 10 (3×) and 8 and 7
same,"BSS scoring E (eating/drinking), Time Bin 6 (25-30 TOTAL)",[2],9 (2×) and 10 (5×) and 7 and 8 (3×) and 6
same,"BSS scoring G (grooming), Time Bin 1 (0-5 TOTAL)",[2],0 (9×) and 1 (3×)
same,"BSS scoring G (grooming), Time Bin 2 (5-10 TOTAL)",[2],1 (4×) and 0 (8×)
same,"BSS scoring G (grooming), Time Bin 3 (10-15 TOTAL)",[2],0 (9×) and 1 (3×)
same,"BSS scoring G (grooming), Time Bin 4 (15-20 TOTAL)",[2],0 (11×) and 1
same,"BSS scoring G (grooming), Time Bin 5 (20-25 TOTAL)",[2],1 (4×) and 0 (8×)
same,"BSS scoring G (grooming), Time Bin 6 (25-30 TOTAL)",[2],0 (10×) and 1 (2×)
same,"BSS scoring R (resting), Time Bin 1 (0-5 TOTAL)",[2],0 (11×) and 1
same,"BSS scoring R (resting), Time Bin 2 (5-10 TOTAL)",[2],0
same,"BSS scoring R (resting), Time Bin 3 (10-15 TOTAL)",[2],0
same,"BSS scoring R (resting), Time Bin 4 (15-20 TOTAL)",[2],0 (10×) and 1 (2×)
same,"BSS scoring R (resting), Time Bin 5 (20-25 TOTAL)",[2],0 (10×) and 1 and 2
same,"BSS scoring R (resting), Time Bin 6 (25-30 TOTAL)",[2],0 (10×) and 3 and 1
same,"BSS scoring A (active), Time Bin 19 (90-95 TOTAL)",[3],0 (4×) and 5 (2×) and 2 (2×) and 6 and 3 and 1 (2×)
same,"BSS scoring A (active), Time Bin 20 (95-100 TOTAL)",[3],3 (2×) and 2 (2×) and 0 (4×) and 1 (2×) and 4 (2×)
same,"BSS scoring A (active), Time Bin 21 (100-105 TOTAL)",[3],0 (7×) and 1 (3×) and 2 (2×)
same,"BSS scoring A (active), Time Bin 22 (105-110 TOTAL)",[3],0 (8×) and 4 and 1 and 2 (2×)
same,"BSS scoring A (active), Time Bin 23 (110-115 TOTAL)",[3],4 (2×) and 3 and 1 and 0 (4×) and 6 (2×) and 2 and 7
same,"BSS scoring A (active), Time Bin 24 (115-120 TOTAL)",[3],0 (6×) and 3 (2×) and 5 and 1 (2×) and 4
same,"BSS scoring E (eating/drinking), Time Bin 19 (90-95 TOTAL)",[3],9 (5×) and 4 (2×) and 0 and 2 and 7 and 8 and 5
same,"BSS scoring E (eating/drinking), Time Bin 20 (95-100 TOTAL)",[3],7 and 6 (2×) and 10 (3×) and 9 and 8 (2×) and 1 and 4 (2×)
same,"BSS scoring E (eating/drinking), Time Bin 21 (100-105 TOTAL)",[3],10 (4×) and 9 (2×) and 6 and 7 and 0 and 8 and 5 and 4
same,"BSS scoring E (eating/drinking), Time Bin 22 (105-110 TOTAL)",[3],10 (6×) and 0 (2×) and 3 and 7 and 8 and 5
same,"BSS scoring E (eating/drinking), Time Bin 23 (110-115 TOTAL)",[3],5 (2×) and 6 and 9 (2×) and 1 (2×) and 4 (2×) and 0 and 8 and 10
same,"BSS scoring E (eating/drinking), Time Bin 24 (115-120 TOTAL)",[3],0 (3×) and 6 (2×) and 10 and 4 (2×) and 2 and 8 (2×) and 5
same,"BSS scoring G (grooming), Time Bin 19 (90-95 TOTAL)",[3],0 (8×) and 1 (3×) and 3
same,"BSS scoring G (grooming), Time Bin 20 (95-100 TOTAL)",[3],0 (8×) and 1 (2×) and 2 (2×)
same,"BSS scoring G (grooming), Time Bin 21 (100-105 TOTAL)",[3],0 (10×) and 1 (2×)
